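Each compound was tested at five concentrations against cells in 96-well plates for 48 hours. The concentration for 50% growth inhibition is given as GI50.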 The source made the active and inactive calls. Cut-off read from the data, not from the text of the source: active = GI50 up to about 1.1 µM and inactive = higher.
Columns and labels:
Assay in all cases: NCI anticancer screen, dose series, 48 h
OVCAR-5 = system: OVCAR-5
HCT-116 = system: HCT-116
OVCAR-8 = system: OVCAR-8
MDA-N = system: MDA-N
CAKI-1 = system: CAKI-1
SK-MEL-2 = system: SK-MEL-2
SK-MEL-28 = system: SK-MEL-28
DU-145 = system: DU-145
NCI-H23 = system: NCI-H23
OVCAR-4 = system: OVCAR-4
SF-295 = system: SF-295
UACC-62 = system: UACC-62
SNB-75 = system: SNB-75
EKVX = system: EKVX
HT-29 = system: HT-29
CCRF-CEM = system: CCRF-CEM
HOP-92 = system: HOP-92
SF-539 = system: SF-539
HL-60 = system: HL-60
SR = system: SR

Row | SMILES | GI50 (OVCAR-5) | GI50 (HCT-116) | GI50 (OVCAR-8) | GI50 (MDA-N) | GI50 (CAKI-1) | GI50 (SK-MEL-2) | GI50 (SK-MEL-28) | GI50 (DU-145) | GI50 (NCI-H23) | GI50 (OVCAR-4) | GI50 (SF-295) | GI50 (UACC-62) | GI50 (SNB-75) | GI50 (EKVX) | GI50 (HT-29) | GI50 (CCRF-CEM) | GI50 (HOP-92) | GI50 (SF-539) | GI50 (HL-60) | GI50 (SR)
1 | CO[C@]12C#CC=CC#C[C@@H](O)[C@]3(CCC1)O[C@@]23c1cccc(O)c1 | > 100 µM (inactive) | > 100 µM (inactive) | > 100 µM (inactive) | > 100 µM (inactive) | > 100 µM (inactive) | > 100 µM (inactive) | > 100 µM (inactive) | > 100 µM (inactive) | > 100 µM (inactive) | > 100 µM (inactive) | > 100 µM (inactive) | 52.6 µM (inactive) | > 100 µM (inactive) |  |  |  |  |  |  | 
2 | CC1=CC(=O)/C(=C/n2c(=S)[nH]c3ccccc32)C(=O)O1 | > 100 µM (inactive) | > 100 µM (inactive) | > 100 µM (inactive) | > 100 µM (inactive) | > 100 µM (inactive) | > 100 µM (inactive) |  | > 100 µM (inactive) | > 100 µM (inactive) | > 100 µM (inactive) | > 100 µM (inactive) | > 100 µM (inactive) | 35.7 µM (inactive) | 76.4 µM (inactive) | > 100 µM (inactive) | 58.9 µM (inactive) | > 100 µM (inactive) | > 100 µM (inactive) | < 0.01 µM (active) | 
3 | COc1cc(C(c2cc3c(cc2O)OCO3)N2CCCC2)cc(OC)c1OC (centres undefined) | 25.9 µM (inactive) | 15.4 µM (inactive) | 16.1 µM (inactive) | 13.4 µM (inactive) | 13.6 µM (inactive) | 19.6 µM (inactive) | 23.3 µM (inactive) | 19.3 µM (inactive) | 17.5 µM (inactive) | 17 µM (inactive) | 18.6 µM (inactive) | 15.8 µM (inactive) | 16.2 µM (inactive) | 14.7 µM (inactive) | 10.4 µM (inactive) | 1.79 µM (inactive) | 7.96 µM (inactive) |  | 2.07 µM (inactive) | 
4 | COP(=O)(OC)OCN(C)CC/C=C(\C)CC/C=C(\C)CCC=C(C)C | 15.5 µM (inactive) | 11.8 µM (inactive) | 16 µM (inactive) | 14.9 µM (inactive) | 17.6 µM (inactive) | 14.9 µM (inactive) | 17.3 µM (inactive) |  | 17.2 µM (inactive) | 31.3 µM (inactive) | 16.6 µM (inactive) |  | 14.8 µM (inactive) | 29.2 µM (inactive) |  | 10.4 µM (inactive) | 17.6 µM (inactive) | 15.7 µM (inactive) |  | 
5 | NCCO/C=C/C(N)C(=O)O (centres undefined) [AMINOETHOXYVINYLGLYCINE] | > 100 µM (inactive) | > 100 µM (inactive) | > 100 µM (inactive) | > 100 µM (inactive) | > 100 µM (inactive) | > 100 µM (inactive) | > 100 µM (inactive) | > 100 µM (inactive) | > 100 µM (inactive) | > 100 µM (inactive) | > 100 µM (inactive) | > 100 µM (inactive) | > 100 µM (inactive) | > 100 µM (inactive) | > 100 µM (inactive) | > 100 µM (inactive) | > 100 µM (inactive) | > 100 µM (inactive) | > 100 µM (inactive) | 
6 | CC1(C)C(=O)C2(C#N)CCC1C2 (centres undefined) | > 100 µM (inactive) | > 100 µM (inactive) | > 100 µM (inactive) | > 100 µM (inactive) | > 100 µM (inactive) | > 100 µM (inactive) | > 100 µM (inactive) | > 100 µM (inactive) | > 100 µM (inactive) | > 100 µM (inactive) | > 100 µM (inactive) | > 100 µM (inactive) | > 84.7 µM (inactive) | > 100 µM (inactive) | > 100 µM (inactive) | > 100 µM (inactive) | > 100 µM (inactive) | > 100 µM (inactive) | > 100 µM (inactive) | 
7 | NC(Cc1ccccc1)P(=O)(O)O (centres undefined) | > 100 µM (inactive) | > 100 µM (inactive) | > 100 µM (inactive) | > 100 µM (inactive) | > 100 µM (inactive) | > 100 µM (inactive) | > 100 µM (inactive) |  | > 100 µM (inactive) | > 100 µM (inactive) | > 100 µM (inactive) | > 100 µM (inactive) |  | > 100 µM (inactive) | > 100 µM (inactive) | > 100 µM (inactive) | > 100 µM (inactive) |  | > 100 µM (inactive) | > 100 µM (inactive)
8 | CC1(C)C(CCO)CC1n1cc(I)c(=O)[nH]c1=O (centres undefined) | > 100 µM (inactive) | > 100 µM (inactive) |  | > 100 µM (inactive) | > 100 µM (inactive) | > 100 µM (inactive) | > 100 µM (inactive) | > 100 µM (inactive) |  | > 100 µM (inactive) | > 100 µM (inactive) | 21.1 µM (inactive) | > 100 µM (inactive) | > 100 µM (inactive) |  | > 100 µM (inactive) | > 100 µM (inactive) | > 100 µM (inactive) |  | 
9 | N#CCc1nc(O)c2ccccc2n1 | > 100 µM (inactive) | > 100 µM (inactive) | > 100 µM (inactive) | > 100 µM (inactive) | > 100 µM (inactive) | > 100 µM (inactive) | > 100 µM (inactive) | > 100 µM (inactive) | > 100 µM (inactive) | > 100 µM (inactive) | > 100 µM (inactive) |  | > 100 µM (inactive) | > 100 µM (inactive) | > 100 µM (inactive) |  | > 100 µM (inactive) | > 100 µM (inactive) | 28.3 µM (inactive) | 
10 | O=S(=O)(c1cc(Cl)ccc1Cl)N1CCN(S(=O)(=O)c2cc(Cl)ccc2Cl)CC1 | 16.3 µM (inactive) | > 100 µM (inactive) | > 100 µM (inactive) | > 100 µM (inactive) | > 100 µM (inactive) | 0.403 µM (active) | > 100 µM (inactive) | 16.1 µM (inactive) | 4.86 µM (inactive) |  | > 100 µM (inactive) | 0.489 µM (active) | > 100 µM (inactive) |  | > 100 µM (inactive) |  | > 100 µM (inactive) | > 100 µM (inactive) |  | 
11 | O=[N+]([O-])/C(C(Cl)=C(Cl)Cl)=C(\Nc1cccc2cccnc12)SCc1ccccc1 | 30.8 µM (inactive) | 19.8 µM (inactive) |  | 31.1 µM (inactive) | 20.7 µM (inactive) | 12.6 µM (inactive) | 19 µM (inactive) | 21.5 µM (inactive) | 17 µM (inactive) | 24.4 µM (inactive) | 18.7 µM (inactive) | 23.3 µM (inactive) | 18.3 µM (inactive) | 21.1 µM (inactive) | 23.6 µM (inactive) | 14.9 µM (inactive) |  | 16.9 µM (inactive) |  | 
12 | O=c1c2ccccc2c2ccccc2c(=O)n1-c1cc2c3ccccc3ccc2c2ccccc12 | > 100 µM (inactive) | > 100 µM (inactive) | > 100 µM (inactive) | > 100 µM (inactive) | > 100 µM (inactive) | > 100 µM (inactive) | > 100 µM (inactive) | > 100 µM (inactive) | > 100 µM (inactive) | > 100 µM (inactive) | > 100 µM (inactive) | > 100 µM (inactive) | > 100 µM (inactive) | > 100 µM (inactive) | > 100 µM (inactive) |  | > 100 µM (inactive) | > 100 µM (inactive) |  | 

Source: ChEMBL document CHEMBL1201862, “PubChem BioAssay data set” (2004)
